Experiments:
[1] = target: Epidermal growth factor receptor (Homo sapiens, UniProt P00533); format: cell-based, Sf9
Description: Inhibition of wild type N-terminal GST tagged human recombinant EGFR (695 to end amino acids) expressed in baculovirus infected Sf9 insect cells using Poly (4:1 Glu, Tyr) Peptide substrate by ADP-Glo assay

[2] = Antiproliferative activity against NHBE cells incubated for 72 hrs by MTT assay; format: ADME, cell-based; conditions: Homo sapiens
HCC827 = assay: Antiproliferative activity against human HCC827 cells incubated for 72 hrs by MTT assay; format: functional, cell-based; conditions: HCC827, 72 h
A549 = assay: Antiproliferative activity against human A549 cells incubated for 72 hrs by MTT assay; format: functional, cell-based; conditions: A549, 72 h
A-431 = assay: Antiproliferative activity against human A431 cells incubated for 72 hrs by MTT assay; format: functional, cell-based; conditions: A-431, 72 h
[3] = target: Epidermal growth factor receptor (Homo sapiens, UniProt P00533, L858R/T790M); assay: biochemical; format: cell-based, Sf9
Chain of Epidermal growth factor receptor (Homo sapiens, UniProt P00533, L858R/T790M) (P00533 25-1210 T790M/L858R limits assumed): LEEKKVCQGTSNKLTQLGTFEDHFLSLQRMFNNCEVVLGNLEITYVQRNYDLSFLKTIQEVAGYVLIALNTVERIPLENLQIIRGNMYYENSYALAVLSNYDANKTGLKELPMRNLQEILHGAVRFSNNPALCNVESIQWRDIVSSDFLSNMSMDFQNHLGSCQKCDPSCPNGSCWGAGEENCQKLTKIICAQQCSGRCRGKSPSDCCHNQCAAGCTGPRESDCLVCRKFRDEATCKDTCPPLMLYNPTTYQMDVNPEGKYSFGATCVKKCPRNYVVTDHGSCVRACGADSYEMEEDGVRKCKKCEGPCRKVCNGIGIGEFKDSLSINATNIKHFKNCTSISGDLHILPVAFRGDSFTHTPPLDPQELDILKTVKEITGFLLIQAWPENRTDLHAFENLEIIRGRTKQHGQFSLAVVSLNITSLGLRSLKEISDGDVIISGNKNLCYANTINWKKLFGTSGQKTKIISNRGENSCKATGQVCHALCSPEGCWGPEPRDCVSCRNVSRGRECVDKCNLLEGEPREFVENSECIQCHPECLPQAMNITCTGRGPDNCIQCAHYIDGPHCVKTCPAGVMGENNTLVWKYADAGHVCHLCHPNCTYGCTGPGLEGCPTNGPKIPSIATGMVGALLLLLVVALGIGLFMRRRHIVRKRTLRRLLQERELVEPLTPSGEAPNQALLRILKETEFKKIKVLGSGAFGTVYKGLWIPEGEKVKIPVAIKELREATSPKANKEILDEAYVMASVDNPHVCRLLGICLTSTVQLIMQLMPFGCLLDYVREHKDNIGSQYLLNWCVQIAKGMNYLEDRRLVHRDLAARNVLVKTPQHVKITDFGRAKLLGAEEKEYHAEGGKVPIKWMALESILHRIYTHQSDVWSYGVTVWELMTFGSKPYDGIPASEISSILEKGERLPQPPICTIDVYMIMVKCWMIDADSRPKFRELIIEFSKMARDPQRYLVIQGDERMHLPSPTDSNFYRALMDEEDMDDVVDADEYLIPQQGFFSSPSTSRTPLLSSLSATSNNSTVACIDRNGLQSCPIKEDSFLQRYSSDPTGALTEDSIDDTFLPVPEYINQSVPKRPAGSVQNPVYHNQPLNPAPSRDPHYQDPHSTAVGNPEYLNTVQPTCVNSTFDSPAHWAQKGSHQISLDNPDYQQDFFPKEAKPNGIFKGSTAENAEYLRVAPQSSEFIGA

NCI-H1975 = assay: Antiproliferative activity against human NCI-H1975 cells incubated for 72 hrs by MTT assay; format: functional, cell-based; conditions: NCI-H1975, 72 h

Chain of Epidermal growth factor receptor (Homo sapiens, UniProt P00533) (P00533 whole entry): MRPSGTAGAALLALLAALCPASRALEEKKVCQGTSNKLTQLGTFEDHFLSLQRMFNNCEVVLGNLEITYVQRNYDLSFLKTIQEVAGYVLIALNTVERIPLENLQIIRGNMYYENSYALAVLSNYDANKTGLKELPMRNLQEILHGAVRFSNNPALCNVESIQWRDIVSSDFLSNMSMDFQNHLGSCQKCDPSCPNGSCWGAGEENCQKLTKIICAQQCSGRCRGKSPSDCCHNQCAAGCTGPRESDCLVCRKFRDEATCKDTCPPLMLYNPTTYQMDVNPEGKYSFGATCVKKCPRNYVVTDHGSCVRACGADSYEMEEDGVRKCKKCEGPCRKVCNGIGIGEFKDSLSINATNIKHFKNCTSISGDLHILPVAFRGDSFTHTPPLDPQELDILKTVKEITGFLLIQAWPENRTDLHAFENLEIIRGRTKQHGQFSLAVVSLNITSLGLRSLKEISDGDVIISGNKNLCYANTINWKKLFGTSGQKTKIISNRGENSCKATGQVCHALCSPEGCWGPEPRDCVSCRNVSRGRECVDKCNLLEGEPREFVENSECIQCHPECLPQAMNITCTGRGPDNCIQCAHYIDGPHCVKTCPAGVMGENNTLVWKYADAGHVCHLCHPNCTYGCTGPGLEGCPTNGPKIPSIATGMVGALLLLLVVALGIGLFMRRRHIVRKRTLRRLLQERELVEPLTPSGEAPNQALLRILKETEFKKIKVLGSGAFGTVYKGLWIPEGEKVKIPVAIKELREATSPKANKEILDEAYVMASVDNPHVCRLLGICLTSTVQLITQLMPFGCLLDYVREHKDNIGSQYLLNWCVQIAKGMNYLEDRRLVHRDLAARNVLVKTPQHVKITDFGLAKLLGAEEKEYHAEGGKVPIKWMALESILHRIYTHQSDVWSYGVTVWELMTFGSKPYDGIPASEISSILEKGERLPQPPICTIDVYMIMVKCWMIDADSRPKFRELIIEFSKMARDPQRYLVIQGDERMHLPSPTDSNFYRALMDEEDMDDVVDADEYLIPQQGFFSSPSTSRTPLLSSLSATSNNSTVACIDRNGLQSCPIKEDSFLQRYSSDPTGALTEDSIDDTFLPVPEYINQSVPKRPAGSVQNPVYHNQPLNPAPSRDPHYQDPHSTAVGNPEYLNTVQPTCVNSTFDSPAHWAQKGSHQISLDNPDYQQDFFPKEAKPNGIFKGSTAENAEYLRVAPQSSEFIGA

| Structure (SMILES) | IC50 [1] [nM] | IC50 [2] [nM] | IC50 (HCC827) [nM] | IC50 (A549) [nM] | IC50 (A-431) [nM] | IC50 [3] [nM] | IC50 (NCI-H1975) [nM] |
| --- | --- | --- | --- | --- | --- | --- | --- |
| C=CC(=O)Nc1cccc(Nc2nc(Nc3ccc(CN4CCOCC4)cc3OC)ncc2Cl)c1 | > 500 | 28800 | 52 | 16600 | 2060 | 17 | 287 |
| C=CC(=O)Nc1cccc(Oc2nc(Nc3ccc(CC(=O)N4CCOCC4)cc3)ncc2Cl)c1 | 996 | > 40000 | 48 | 2940 | 2190 | 101 | 296 |
| C=CC(=O)Nc1ccccc1Nc1nc(Nc2ccc(OCCCN3CCOCC3)cc2)ncc1Cl | 767 | > 40000 | 587 | 4740 | 584 | 21.5 | 217 |
| C=CC(=O)Nc1cccc(Nc2nc(Nc3ccc(OCCN4CCOCC4)cc3)ncc2Cl)c1 | 961 | 31500 | 43 | 5710 | 385 | 94.7 | 215 |
| C=CC(=O)Nc1ccccc1Nc1nc(Nc2ccc(OCCN3CCOCC3)cc2)ncc1Cl |  | > 40000 | 524 | 4700 | 478 |  | 240 |
| C=CC(=O)Nc1cccc(Nc2nc(Nc3ccc(CC(=O)N4CCOCC4)cc3)ncc2Cl)c1 | < 500 | 22000 | 58 | 1660 | 760 | 96.6 | 256 |
| C=CC(=O)Nc1ccccc1Nc1nc(Nc2ccc(NC(=O)CN3CCOCC3)cc2)ncc1Cl | 592 | 21600 | 491 | 5110 | 104 | 21.7 | 128 |

Reference: ChEMBL document CHEMBL4270490, “Synthesis and biological evaluation of morpholine-substituted diphenylpyrimidine derivatives (Mor-DPPYs) as potent EGFR T790M inhibitors with improved activity toward the gefitinib-resistant non-small cell lung cancers (NSCLC)” (Eur J Med Chem, 2017)
